Test systems include SK-MEL-5 melanoma; UO-31 renal; HS 578T breast; MCF7 breast; NCI-H23 lung; SN12C renal; 786-0 renal; SW-620 colon; RXF 393 renal; EKVX NSCLC; ACHN renal; SK-MEL-28 melanoma; HCT-116 colon; SNB-19 CNS; OVCAR-8 ovarian; HT29 colon; LOX IMVI melanoma; HOP-62 NSCLC; SK-MEL-2 melanoma.
What all share (experiment): DTP human tumour cell line panel, 48 h

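Five concentrations, 48 hours, 96-well plates. TGI is the concentration that stops growth completely.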 Where only a bound is given, the exact number is not on record here.

In the case of `NNC(=O)c1ccccc1NC(=O)/C(=C/c1ccccc1O)NC(=O)c1ccccc1`, the concentration for total growth inhibition (TGI) is more than 100 µM with SK-MEL-5 melanoma; 24.2 µM in the assay on UO-31 renal; 39.3 µM in the assay with HS 578T breast; 39.2 µM in the assay with MCF7 breast; more than 100 µM with NCI-H23 lung; more than 100 µM with SN12C renal. The TGI in the assay with 786-0 renal was more than 100 µM; with SW-620 colon, more than 100 µM; in the assay with RXF 393 renal, more than 100 µM; in the assay with EKVX NSCLC, more than 100 µM; in the assay on ACHN renal, 32.7 µM; in the assay with SK-MEL-28 melanoma, more than 100 µM. The concentration for total growth inhibition (TGI) was more than 100 µM with HCT-116 colon; 79.7 µM in the assay with SNB-19 CNS; 37.7 µM with OVCAR-8 ovarian; more than 100 µM with HT29 colon; more than 100 µM in the assay on LOX IMVI melanoma.
Consider `COc1cc(CNc2ccc3nc4n(c(=O)c3c2)CCCCC4)cc(OC)c1OC`, for which the TGI in the assay with SK-MEL-5 melanoma is 50.8 µM; with UO-31 renal it was more than 100 µM; in the assay with HS 578T breast, more than 100 µM; in the assay on HOP-62 NSCLC it was more than 100 µM; in the assay on SK-MEL-2 melanoma, more than 100 µM; in the assay on MCF7 breast, more than 100 µM. For the same compound, the TGI in the assay with NCI-H23 lung, in the assay on SN12C renal, in the assay on 786-0 renal, with SW-620 colon, with RXF 393 renal and in the assay on EKVX NSCLC was more than 100 µM throughout. Besides, the TGI with ACHN renal, with SK-MEL-28 melanoma, with HCT-116 colon, in the assay with OVCAR-8 ovarian, in the assay with HT29 colon and in the assay with LOX IMVI melanoma was more than 100 µM each time.
In the case of `CC(=O)Nc1ccc(NC(=O)c2c(Cl)c(Cl)c(Cl)c(Cl)c2-c2nc3ccccc3[nH]2)cc1`, the TGI in the assay with SK-MEL-5 melanoma, in the assay with UO-31 renal, with HS 578T breast, with HOP-62 NSCLC, in the assay on MCF7 breast and in the assay on NCI-H23 lung was more than 100 µM throughout. The concentration for total growth inhibition (TGI) with SN12C renal is more than 100 µM; with 786-0 renal it was more than 100 µM; with SW-620 colon, more than 100 µM; with RXF 393 renal it was 81.5 µM; in the assay on EKVX NSCLC it was more than 100 µM; in the assay on ACHN renal, more than 100 µM. Further, the TGI in the assay with SK-MEL-28 melanoma, in the assay on HCT-116 colon, in the assay with SNB-19 CNS, with OVCAR-8 ovarian and in the assay with HT29 colon was more than 100 µM each time.
As for `Cc1ccc(NN=NCCCCN)cc1`, the total growth inhibition concentration (TGI) with SK-MEL-5 melanoma, in the assay on UO-31 renal, with HS 578T breast, in the assay on HOP-62 NSCLC, in the assay on SK-MEL-2 melanoma and in the assay on MCF7 breast was more than 100 µM in each case. Moreover, the TGI in the assay with NCI-H23 lung, in the assay with SN12C renal, in the assay on 786-0 renal, with SW-620 colon, in the assay on RXF 393 renal and in the assay on EKVX NSCLC was more than 100 µM throughout. Further, the TGI in the assay on ACHN renal, in the assay with HCT-116 colon, in the assay with SNB-19 CNS, in the assay with OVCAR-8 ovarian, in the assay on HT29 colon and in the assay on LOX IMVI melanoma was more than 100 µM each time.
With `CCOP(=O)(CCCC(O)CNc1cc(Cl)nc(N)n1)OCC` (stereo not given), the total growth inhibition concentration (TGI) in the assay on SK-MEL-5 melanoma, in the assay with UO-31 renal, in the assay on HS 578T breast, in the assay with HOP-62 NSCLC, in the assay with SK-MEL-2 melanoma and in the assay on MCF7 breast was more than 100 µM each time. For the same compound, the TGI with NCI-H23 lung, with SN12C renal, in the assay on 786-0 renal, with SW-620 colon, in the assay on RXF 393 renal and in the assay with EKVX NSCLC was more than 100 µM each time. In addition, the TGI in the assay on ACHN renal, in the assay on SK-MEL-28 melanoma, in the assay on HCT-116 colon, with OVCAR-8 ovarian, with HT29 colon and in the assay on LOX IMVI melanoma was more than 100 µM throughout.
On to `CC(=O)N1OC(C)CC1Nc1ccc(Br)cc1` (stereo not given), for which the TGI with SK-MEL-5 melanoma is more than 100 µM; in the assay on UO-31 renal, more than 100 µM; in the assay with HS 578T breast, more than 100 µM; with HOP-62 NSCLC, 6.13 µM; with SK-MEL-2 melanoma, more than 100 µM; in the assay with MCF7 breast, more than 100 µM. Besides, the TGI in the assay on NCI-H23 lung, in the assay on SN12C renal, in the assay with 786-0 renal, with SW-620 colon, in the assay with RXF 393 renal and in the assay on EKVX NSCLC was more than 100 µM throughout. Besides, the TGI in the assay on ACHN renal, in the assay on HCT-116 colon, with SNB-19 CNS, in the assay with OVCAR-8 ovarian and in the assay with HT29 colon was more than 100 µM each time.
Consider `O=C1C(N2CCNCC2)=C(Cl)C(=O)c2ncccc21`, for which the TGI in the assay on SK-MEL-5 melanoma, with HS 578T breast, in the assay with HOP-62 NSCLC, in the assay on SK-MEL-2 melanoma, with MCF7 breast and in the assay with NCI-H23 lung was more than 10 µM in each case. The TGI with SN12C renal, with 786-0 renal, with SW-620 colon, in the assay with RXF 393 renal, in the assay with EKVX NSCLC and with ACHN renal was more than 10 µM throughout. The TGI in the assay with SK-MEL-28 melanoma is more than 10 µM; in the assay with HCT-116 colon, 4.36 µM; in the assay with SNB-19 CNS, more than 10 µM; with OVCAR-8 ovarian, more than 10 µM; in the assay on HT29 colon it was more than 10 µM.
Regarding `OC1(c2ccccc2)CC2CCC(C1)N2CCCC1(c2ccc(F)cc2)OCCO1` (stereo not given), the TGI is 44.3 µM in the assay on SK-MEL-5 melanoma; more than 100 µM in the assay on UO-31 renal; more than 100 µM with HS 578T breast; more than 100 µM in the assay on HOP-62 NSCLC; more than 100 µM in the assay with SK-MEL-2 melanoma; more than 100 µM with MCF7 breast. The TGI with NCI-H23 lung was more than 100 µM; with SN12C renal it was more than 100 µM; with 786-0 renal, 32.4 µM; with SW-620 colon, more than 100 µM; with RXF 393 renal, more than 100 µM; with EKVX NSCLC, more than 100 µM. Also, the TGI is more than 100 µM in the assay on ACHN renal; more than 100 µM in the assay on SK-MEL-28 melanoma; more than 100 µM in the assay on HCT-116 colon; 30.2 µM with OVCAR-8 ovarian; more than 100 µM with HT29 colon; more than 100 µM in the assay on LOX IMVI melanoma.

For orientation: TGI means the concentration giving total growth inhibition. A higher TGI goes with lower sensitivity of the cells.

Values taken from PubChem BioAssay (NCI).
